Reference: patent US5516887A, “Luteinizing hormone releasing hormone antagonist peptides” (Deghenghi; Romano, priority 1994, dated 1996)
Non-standard residues stand in square brackets, D forms with d. *: point of attachment. dPhe(4-Cl) = N[C@H](Cc1ccc(Cl)cc1)C(=O)O; d2Nal = N[C@H](Cc1ccc2ccccc2c1)C(=O)O; d3Pal = N[C@H](Cc1cccnc1)C(=O)O; Carbamoyl = NC(=O)*; iPr = CC(C)*

Key:
[1] = assay type: physicochemical
From the text: An aqueous solution of the peptide of Example 1 was mixed with an aqueous solution of sodium pamoate.

rats = experiment: Test for anaphylactoid properties in rats; assay type: in vivo; settings: six rats, injected with 5 mg/kg, observed over a 24 hour period
Description: Six rats were utilized to test the LHRH antagonist peptide of Example 1 of the present invention for anaphylactoid properties. Each of the six rats was injected with 5 mg/kg of the test peptide.

plasma testosterone = experiment: Suppression of plasma testosterone in rats after i.m. injection; assay type: in vivo; settings: 300 μg/kg i.m.
From the text: The effect of an LHRH antagonist peptide of Example 1 of the present invention was compared to the effect of "Antide", cf. A. Ljungqvist et al., Biochem. Biophys. Res. Comm., 148, 849-858 (1987)., an LHRH antagonist of the prior art. Both LHRH antagonists were intermuscularly injected into 6 rats at a dosage of 300 mcg/kg.

Row | Substance | solubility in water [1] | mortality or other signs of anaphylactoid reactions (rats) | plasma testosterone, 0 hr (plasma testosterone) | effectiveness relative to Antide at 24 hour suppression of plasma testosterone (plasma testosterone; 24 hr) | plasma testosterone, 24 hr (plasma testosterone; 24 hr) | effectiveness relative to Antide at 48 hours, suppression of plasma testosterone (plasma testosterone; 48 hr) | plasma testosterone, 48 hr (plasma testosterone; 48 hr)
1 | Example 1: LHRH antagonist peptide SEQ ID NO.: 1: N-acetyl-D-3-(2-naphthyl)-Ala1, D-3-(4-chlorophenyl)-alanine2, D-3(3-pyridyl)-Ala3, D-6-carbamoyl lysine6, Nε-isopropyl-Lys8, D-Ala-NH2 at 10 (Ac-[d2Nal][dPhe(4-Cl)][d3Pal]SY[dK](Carbamoyl)LK(iPr)P[dA]-NH2) | freely soluble in water | No mortality or other signs of anaphylactoid reactions were observed | 5.46 ± 3.32 | more than about ten times as effective as Antide | 0.067 ± 0.030 | more than twice as effective as Antide | 0.84 ± 0.28
2 | Example 2: LHRH antagonist peptide SEQ ID NO.: 2: as SEQ ID NO.: 1 at positions 1, 2, 3, 6, 8; position 9 is Pro-NHCH2 CH3 (Ac-[d2Nal][dPhe(4-Cl)][d3Pal]SY[dK](Carbamoyl)LK(iPr)P-NHEt; SMILES CCNC(=O)[C@@H]1CCCN1C(=O)[C@H](CCCCNC(C)C)NC(=O)[C@H](CC(C)C)NC(=O)[C@@H](CCCCNC(N)=O)NC(=O)[C@H](Cc1ccc(O)cc1)NC(=O)[C@H](CO)NC(=O)[C@@H](Cc1cccnc1)NC(=O)[C@@H](Cc1ccc(Cl)cc1)NC(=O)[C@@H](Cc1ccc2ccccc2c1)NC(C)=O) | water soluble |  |  |  |  |  | 
3 | Antide [reference compound] |  |  | 3.35 ± 2.51 |  | 0.78 ± 0.37 |  | 1.96 ± 0.95
